# Assay results as given in patent publication US11753446B2, “Beta-hairpin peptidomimetics” (POLYPHOR AG, priority 2014, dated 2023).
# Like-named read-outs stand apart in the source and are kept apart here. Where a SMILES comes first, the peptide text is derived from it. Bridges are numbered along the chain shown (N, C = ends). [ ]: non-standard residue; d: D form. Tle = CC(C)(C)[C@H](N)C(=O)O; dDab = NCC[C@@H](N)C(=O)O; NMeA = CN[C@@H](C)C(=O)O; Orn = NCCC[C@H](N)C(=O)O; Dab = NCC[C@H](N)C(=O)O; Dap = NC[C@H](N)C(=O)O
# Columns and labels:
# [1] = tested on: human red blood cells (hRBC); experiment: Hemolysis: hemolytic activity at 100 μg/mL, 1 h at 37° C.
# In short: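 Peptides at 100 μg/mL incubated with washed 20% (v/v) human erythrocytes (~0.9×10^9 cells/mL) for 1 h at 37 °C with shaking. Released hemoglobin read at OD 540 nm in supernatant; 0% and 100% lysis from PBS/0.001% acetic acid and 2.5% Triton X-100.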
# [2] = tested on: Klebsiella pneumoniae ATCC 13883; format: cell-based
# In short: (§1)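 Peptide activity was tested by NCCLS broth microdilution with slight modifications. Bacteria were diluted in cation-adjusted Mueller-Hinton II broth to approximately 10^6 CFU/mL against a 0.5 McFarland standard. They were then exposed to two-fold serial peptide dilutions in broth containing 0.002% final polysorbate 80.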
# [3] = tested on: Acinetobacter baumannii DSM 30008; format: cell-based
# In short: as §1
# [4] = tested on: Escherichia coli ATCC 25922; format: cell-based
# In short: as §1
# [5] = 100 μg/mL, 20% hRBC, 1 h at 37° C.
# [6] = Mueller-Hinton II broth, 18-20 hours at 35° C.
SMILES,"Hemolysis at 100 μg/mL [1, 5] [%]","Klebsiella pneumoniae ATCC 13883 MIC [2, 6] [µg/mL]","Acinetobacter baumannii DSM 30008 MIC [3, 6] [µg/mL]","Escherichia coli ATCC 25922 MIC [4, 6] [µg/mL]","Hemolysis at 100 μg/mL ([1]; red cells of human, 1 h, 100) [%]",Klebsiella pneumoniae ATCC 13883 MIC ([2]; ATCC 13883) [µg/mL],Acinetobacter baumannii DSM 30008 MIC ([3]; DSM 30008) [µg/mL],Escherichia coli ATCC 25922 MIC ([4]; ATCC 25922) [µg/mL]
"CC(C)C[C@@H]1NC(=O)[C@H](CCCNC(=N)N)NC(=O)[C@@H](CCN)NC(=O)[C@H](C(C)(C)C)NC(=O)[C@@H]2CSSC[C@H](NC1=O)C(=O)N[C@@H](Cc1ccc(O)cc1)C(=O)N[C@@H](CC(N)=O)C(=O)N[C@@H](CCCN)C(=O)N[C@H](CCN)C(=O)N[C@@H](CCN)C(=O)N[C@@H](Cc1c[nH]c3ccccc13)C(=O)N[C@@H](CO)C(=O)N[C@@H](Cc1ccc(O)cc1)C(=O)N2 [Example 64, cyclo(-Leu-Cys-Tyr-Asn-Orn-^DDab-Dab-Trp-Ser-Tyr-Cys-tBuGly-^DDab-Arg-)] (cyclo(C[Tle][dDab]RLCYN[Orn][dDab][Dab]WSY); disulfide 1-6)",1,1,1.125,1,–,–,–,–
"CC[C@H](C)[C@@H]1NC(=O)[C@H](C)NC(=O)[C@@H](CCN)NC(=O)[C@H](CO)NC(=O)[C@@H]2CSSC[C@H](NC1=O)C(=O)N[C@@H](Cc1ccc(O)cc1)C(=O)N[C@@H](CCN)C(=O)N[C@@H](CCCN)C(=O)N[C@H](CCN)C(=O)N[C@@H](CCN)C(=O)N[C@@H](Cc1c[nH]c3ccccc13)C(=O)N[C@@H](CCN)C(=O)N[C@@H](C(C)(C)C)C(=O)N2 [Example 13, cyclo(-Ile-Cys-Tyr-Dab-Orn-^DDab-Dab-Trp-Dab-tBuGly-Cys-Ser-^DDab-Ala-)] (cyclo(AICY[Dab][Orn][dDab][Dab]W[Dab][Tle]CS[dDab]); disulfide 3-12)",–,–,–,–,1,8,2,0.5
"CC(C)C[C@@H]1NC(=O)[C@H](CCCNC(=N)N)NC(=O)[C@@H](CCN)NC(=O)[C@H](C(C)C)NC(=O)[C@H](CO)NC(=O)[C@H](C(C)C)NC(=O)[C@@H]2CSSC[C@H](NC(=O)[C@H](Cc3ccc(O)cc3)NC(=O)[C@H](CO)NC1=O)C(=O)N[C@@H](CCCN)C(=O)N[C@H](CCN)C(=O)N[C@@H](CCN)C(=O)N[C@@H](Cc1ccccc1)C(=O)N2 [Example 39, cyclo(-Leu-Ser-Tyr-Cys-Orn-^DDab-Dab-Phe-Cys-Val-Ser-Val-^DDab-Arg-)] (HELM PEPTIDE1{C.[Orn].[NCC[C@@H](N[*:1])C(=O)[*:2]].[Dab].F.C.V.S.V.[NCC[C@@H](N[*:1])C(=O)[*:2]].R.L.S.Y}$PEPTIDE1,PEPTIDE1,1:R3-6:R3|PEPTIDE1,PEPTIDE1,1:R1-14:R2$$$V2.0)",–,–,–,–,4.5,0.25,0.5,0.5
"CC(C)[C@@H]1NC(=O)[C@H](C)N(C)C(=O)[C@H]2CCCN2C(=O)[C@H](CO)NC(=O)[C@H](C)NC(=O)[C@H](C(C)(C)C)NC(=O)[C@H](CCN)NC(=O)[C@H](Cc2c[nH]c3ccccc23)NC(=O)[C@H](CCN)NC(=O)[C@@H](CCN)NC(=O)[C@H](CN)NC(=O)[C@H](CCN)NC(=O)[C@H](Cc2ccc(O)cc2)NC(=O)[C@H](CO)NC1=O [Example 44, cyclo(-Val-Ser-Tyr-Dab-Dap-^DDab-Dab-Trp-Dab-tBuGly-Ala-Ser-^DPro-NMeAla-)] (cyclo(AS[dP][NMeA]VSY[Dab][Dap][dDab][Dab]W[Dab][Tle]))",–,–,–,–,1,0.5,2,1
"CC(C)C[C@@H]1NC(=O)[C@H](CCCNC(=N)N)NC(=O)[C@@H](CCN)NC(=O)[C@H](C(C)C)NC(=O)[C@@H]2CSSC[C@H](NC1=O)C(=O)N[C@@H](Cc1ccc(O)cc1)C(=O)N[C@@H](CC(N)=O)C(=O)N[C@@H](CCCN)C(=O)N[C@@H](CCN)C(=O)N[C@@H](CCN)C(=O)N[C@@H](Cc1c[nH]c3ccccc13)C(=O)N[C@@H](CO)C(=O)N[C@@H](Cc1ccc(O)cc1)C(=O)N2 [Example 55, cyclo(-Leu-Cys-Tyr-Asn-Orn-Dab-Dab-Trp-Ser-Tyr-Cys-Val-^DDab-Arg-)] (HELM PEPTIDE1{C.V.[NCC[C@@H](N[*:1])C(=O)[*:2]].R.L.C.Y.N.[Orn].[Dab].[Dab].W.S.Y}$PEPTIDE1,PEPTIDE1,1:R3-6:R3|PEPTIDE1,PEPTIDE1,1:R1-14:R2$$$V2.0)",–,–,–,–,0,1,1.25,1
"CC(C)C[C@@H]1NC(=O)[C@H](CCN)NC(=O)[C@@H](CCN)NC(=O)[C@H]([C@@H](C)O)NC(=O)[C@@H]2CCNC(=O)C[C@H](NC1=O)C(=O)N[C@@H](Cc1ccc(O)cc1)C(=O)N[C@@H](CC(N)=O)C(=O)N[C@@H](CCCN)C(=O)N[C@H](CCN)C(=O)N[C@@H](CCN)C(=O)N[C@@H](Cc1c[nH]c3ccccc13)C(=O)N[C@@H](CO)C(=O)N[C@@H](C(C)(C)C)C(=O)N2 [Example 76, cyclo(-Leu-Asp-Tyr-Asn-Orn-^DDab-Dab-Trp-Ser-tBuGly-Dab-Thr-^DDab-Dab-)] (cyclo(LDYN[Orn][dDab][Dab]WS[Tle][Dab]T[dDab][Dab]); lactam 2-11)",–,–,–,–,2,1,1.5,1
"CC(C)[C@@H]1NC(=O)[C@H](C)NC(=O)[C@@H](C)NC(=O)[C@H](CO)NC(=O)[C@@H]2CC(=O)NCC[C@H](NC1=O)C(=O)N[C@@H](Cc1ccc(O)cc1)C(=O)N[C@@H](CCN)C(=O)N[C@@H](CCN)C(=O)N[C@H](CCN)C(=O)N[C@@H](CCN)C(=O)N[C@@H](Cc1c[nH]c3ccccc13)C(=O)N[C@@H](CCN)C(=O)N[C@@H](C(C)(C)C)C(=O)N2 [Example 30, cyclo(-Val-Dab-Tyr-Dab-Dab-^DDab-Dab-Trp-Dab-tBuGly-Asp-Ser-^DAla-Ala-)] (HELM PEPTIDE1{A.V.[Dab].Y.[Dab].[Dab].[NCC[C@@H](N[*:1])C(=O)[*:2]].[Dab].W.[Dab].[CC(C)(C)[C@H](N[*:1])C(=O)[*:2]].D.S.[dA]}$PEPTIDE1,PEPTIDE1,3:R3-12:R3|PEPTIDE1,PEPTIDE1,1:R1-14:R2$$$V2.0)",–,–,–,–,1,2,8,1
"CC(C)[C@@H]1NC(=O)[C@@H]2CSSC[C@H](NC(=O)[C@H](Cc3ccc(O)cc3)NC(=O)[C@H]([C@@H](C)O)NC(=O)[C@H](Cc3c[nH]c4ccccc34)NC(=O)[C@H](CCN)NC(=O)[C@@H](CCN)NC(=O)[C@H](CCCN)NC(=O)[C@H]([C@@H](C)O)NC1=O)C(=O)N[C@@H](CCN)C(=O)N[C@H](CCN)C(=O)N[C@@H](CCCNC(=N)N)C(=O)N[C@@H](Cc1ccccc1)C(=O)N2 [Example 24, cyclo(-Phe-Cys-Val-Thr-Orn-^DDab-Dab-Trp-Thr-Tyr-Cys-Dab-^DDab-Arg-)] (HELM PEPTIDE1{C.[Dab].[NCC[C@@H](N[*:1])C(=O)[*:2]].R.F.C.V.T.[Orn].[NCC[C@@H](N[*:1])C(=O)[*:2]].[Dab].W.T.Y}$PEPTIDE1,PEPTIDE1,1:R3-6:R3|PEPTIDE1,PEPTIDE1,1:R1-14:R2$$$V2.0)",0,2,2,1,–,–,–,–
